Bridge positions count the residues as written; N and C are the ends. Ends that are not written are not given here. COCH2 = acetyl group that carries the bridge
tested on: Recombinant Human FGFR1 alpha (IIIc) Fc Chimera Protein; assay: Binding affinity of enzymatically synthesized cyclic peptide to FGFR by ELISA; conditions: luminescence signal at reaction concentration 10 nmol/L, SEQ ID NO: 39 standardized to 1, enzyme synthesis product
Method: The binding affinity of the cyclic peptide to FGFR was evaluated using an ELISA method.
The binding affinity of the enzymatically synthesized cyclic peptide to FGFR was measured by evaluating the amount of the cyclic peptide bound to FGFR by ELISA.
First, 5 ng of Recombinant Human FGFR1 alpha (IIIc) Fc Chimera Protein CF (R&D systems, 658-FR-050) was immobilized in each well of a 96-well plate, and blocked with Pierce Protein-Free (PBS) Blocking Buffer (Thermo, 37572), and a cyclic peptide diluted with Can Get Signal Immunoreaction Enhancer Solution I (TOYOBO, NKB-101) was then added and reacted at room temperature for 3 hours. After washing with 0.05% Tween 20-containing phosphate buffered saline (PBS), an anti-Myc antibody (Cell Signaling, 14038S) diluted with Can Get Signal Immunoreaction Enhancer Solution II (TOYOBO, NKB-101) was added and reacted at room temperature for 2 hours. After washing with 0.05% Tween 20-containing PBS, SuperSignal ELISA Femto Substrate (Thermo, 37075) was added, and the luminescence amount was measured. The dose-response relationship was calculated from using the difference between the luminescence amount in the well in which FGFR was immobilized and the luminescence amount in the well in which FGFR was not immobilized, and the concentration of the cyclic peptide at the time of reaction, and the binding affinity to FGFR was evaluated according to the following evaluation criteria. The evaluation result preferably satisfies the evaluation criteria A, B, or C.
In a case where a value of a luminescence signal emitted by the cyclic peptide set forth in SEQ ID NO: 39 at a reaction concentration of 10 nmol/L is standardized to 1, evaluation criteria of the luminescence signal value emitted by the cyclic peptide at a reaction concentration of 10 nmol/L is as follows. • A: 0.7 or more • B: 0.5 or more and less than 0.7 • C: 0.1 or more and less than 0.5 • D: less than 0.1.

Evaluation result of binding affinity to FGFR | Substance
A (0.7 or more) | 70 (ICSYERLQFHGHEAPFRVK(COCH2)V; thioether 2-19 (inferred)) [compound 70]
A (0.7 or more) | 103 (HCSTERLQFHGHEAPFRVK(COCH2)V; thioether 2-19 (inferred)) [compound 103]
C (0.1 or more and less than 0.5) | 116 (HCSYERLQFHGHEAQFRVK(COCH2)V; thioether 2-19 (inferred)) [compound 116]
A (0.7 or more) | 167 (HCSYERLQFFGHEAPFRVK(COCH2)V; thioether 2-19 (inferred)) [compound 167]
B (0.5 or more and less than 0.7) | 260 (ECVLQRLFFEGHLAPFILK(COCH2)I; thioether 2-19 (inferred)) [compound 260]
A (0.7 or more) | 305 (HCSYERLQFHGHMAPFRVK(COCH2)V; thioether 2-19 (inferred)) [compound 305]
B (0.5 or more and less than 0.7) | 64 (HCSYERLQFHGHEAPFAVK(COCH2)V; thioether 2-19 (inferred)) [compound 64]
C (0.1 or more and less than 0.5) | 114 (HCSYERLQFHGHEVPFRVK(COCH2)V; thioether 2-19 (inferred)) [compound 114]
A (0.7 or more) | 200 (HCSYERLQFHGHEAPFTVK(COCH2)V; thioether 2-19 via Ac; not fully specified) [compound 200]
A (0.7 or more) | 152 (HCSYERLNFHGHEAPFRVK(COCH2)V; thioether 2-19 (inferred)) [compound 152]
C (0.1 or more and less than 0.5) | 270 (QCYVQLYVWGHPAPFYWDK(COCH2)T; thioether 2-19 (inferred)) [compound 270]
C (0.1 or more and less than 0.5) | 163 (HCSYERLQFGGHEAPFRVK(COCH2)V; thioether 2-19 (inferred)) [compound 163]
C (0.1 or more and less than 0.5) | 47 (SCWTQLQWQAHLAPFWTK(COCH2)V; thioether 2-18 (inferred)) [compound 47]
A (0.7 or more) | 222 (HCSYERLQFHGHEAPFRVK(COCH2)R; thioether 2-19 (inferred)) [compound 222]
B (0.5 or more and less than 0.7) | 115 (HCSYERLQFHGHEANFRVK(COCH2)V; thioether 2-19 (inferred)) [compound 115]
C (0.1 or more and less than 0.5) | 364 (WCQLRFQGHLAPFIIK(COCH2)S; thioether 2-16) [compound 364]
A (0.7 or more) | 76 (QCSYERLQFHGHEAPFRVK(COCH2)V; thioether 2-19 (inferred)) [compound 76]
A (0.7 or more) | 309 (HCSYERLQFHGHEAPFRVK(COCH2)M; thioether 2-19 (inferred)) [compound 309]
C (0.1 or more and less than 0.5) | 118 (HCSYERLQFHGHEAHFRVK(COCH2)V; thioether 2-19 (inferred)) [compound 118]
A (0.7 or more) | 39 (HCSYERLQFHGHEAPFRVKV; also: cyclic peptide, ring not given here) [compound 39]
A (0.7 or more) | 66 (HCSYERLQFHGHEAPFRVK(COCH2)A; thioether 2-19 (inferred)) [compound 66]
B (0.5 or more and less than 0.7) | 120 (HCSYGRLQFHGHEAPFRVK(COCH2)V; thioether 2-19 (inferred)) [compound 120]
A (0.7 or more) | 73 (YCSYERLQFHGHEAPFRVK(COCH2)V; thioether 2-19 (inferred)) [compound 73]
